Data from patent US7763728B2, “Tetrahydropyridothiophenes” (4SC AG, priority 2005, dated 2010).

Key:
[1] = tested on: RKO colon adenocarcinoma cells (RKOp27) arrested by the expression of ectopic p27Kip1; assay: Alamar Blue cell viability assay on RKOp27 cells arrested by p27Kip1 expression induced by Ponasterone A; assay type: cell-based; conditions: Homo sapiens, 72 hours incubation, 10 μM Ponasterone A, read-out: IC50 RKO p27 induced (arrested)
Experimental: To determine the cell cycle specific mode of action, subclones of RKO colon adenocarcinoma cells (RKOp27 or RKOp21 as described by Schmidt et al. in Oncogene 19, 2423-2429; 2000) are seeded into 96 well flat bottom plates at a density of 15000 cells per well in a volume of 50 μl per well in DMEM growth medium with 10% FCS containing 10 μM Ponasterone A. 24 hours after seeding the 50 μl each of the compound dilutions in DMEM medium are added into each well of the 96 Well plate. Each compound dilution is tested as quadruplicates. Wells containing untreated control cells are filled with 50 μl DMEM medium containing 1% DMSO. The cells are then incubated with the substances for 72 hours at 37° C. in a humidified atmosphere containing 5% carbon dioxide. To determine the viability of the cells, 10 μl of an Alamar Blue solution (Biosource) are added and the fluorescence was measured at an extinction of 544 nm and an emission of 590 nm. For the calculation of the cell viability the emission value from untreated cells is set as 100% viability and the emission rates of treated cells are set in relation to the values of untreated cells. Viabilities are expressed as % values. Viability is compared of proliferating cells grown in the absence of the inducer Ponasterone A, versus viability of cells arrested by the expression of ectopic p27Kip1 induced by Ponasterone A.

[2] = tested on: RKO (RKOp27) human colon adenocarcinoma cells; assay: Alamar Blue cell viability assay, anti-proliferative/cytotoxic activity on proliferating (uninduced) RKOp27 cells; assay type: cell-based; conditions: 72 hours incubation, absence of the inducer Ponasterone A, read-out: IC50 RKO p27 uninduced (proliferating)
Experimental: The anti-proliferative/cytotoxic activity of the compounds described herein, can be tested on subclones of RKO (RKOp27) human colon adenocarcinoma cells (Schmidt et al., Oncogene 19, 2423-2429; 2000) using the Alamar Blue cell viability assay (described in O'Brien et al. Eur J Biochem 267, 5421-5426, 2000). The compounds are dissolved as 20 mM solutions in dimethylsulfoxide (DMSO) and subsequently diluted in semi-logarithmic steps. DMSO dilutions are further diluted 1:100 into Dulbecco's modified Eagle's medium (DMEM) containing 10% fetal calf serum to a final concentration twice as much as the final concentration in the test. RKO subclones are seeded into 96 well flat bottom plates at a density of 5000 cells per well in a volume of 50 μl per well. 24 hours after seeding the 50 μl each of the compound dilutions in DMEM medium are added into each well of the 96 Well plate. Each compound dilution is tested as quadruplicates. Wells containing untreated control cells are filled with 50 μl DMEM medium containing 1% DMSO. The cells are then incubated with the substances for 72 hours at 37° C. in a humified atmosphere containing 5% carbon dioxide. To determine the viability of the cells, 10 μl of an Alamar Blue solution (Biosource) are added and the fluorescence is measured at an extinction of 544 nm and an emission of 590 nm. For the calculation of the cell viability the emission value from untreated cells is set as 100% viability and the emission rates of treated cells are set in relation to the values of untreated cells. Viabilities are expressed as % values.
The corresponding IC50 values of the compounds for anti-proliferative/cytotoxic activity are determined from the concentration-effect curves.
Representative IC50 values for anti-proliferation/cytotoxicity determined in the mentioned assay follow from the following table A, in which the numbers of the compounds correspond to the numbers of the examples.

Row | Structure (SMILES) | IC50 [1] | IC50 [2]
1 | CCOc1ccccc1C(C)CC(=O)Nc1sc2c(c1C#N)CCN(C(=O)Cn1ccnc1)C2 (racemic) [Example 83, (RS)—N-[3-Cyano-6-(2-imidazol-1-yl-ethanoyl)-4,5,6,7-tetrahydro-thieno[2,3-c]pyridin-2-yl]-3-(2-ethoxy-phenyl)-butyramide] | ≥ 40 µM | ≤ 0.3 µM
2 | COc1ccccc1CCC(=O)Nc1sc2c(c1C#N)CCN(C(=O)Cn1ccnc1)C2 [Example 84, N-[3-Cyano-6-(2-imidazol-1-yl-ethanoyl)-4,5,6,7-tetrahydro-thieno[2,3-c]pyridin-2-yl]-3-(2-methoxy-phenyl)-propionamide] | ≥ 40 µM | ≤ 0.3 µM
3 | COc1ccccc1C(C)CC(=O)Nc1sc2c(c1C#N)CCN(C(=O)CCn1ccnc1C)C2 (racemic) [Example 105, (RS)—N-{3-Cyano-6-[3-(2-methyl-imidazol-1-yl)-propanoyl]-4,5,6,7-tetrahydro-thieno[2,3-c]pyridin-2-yl}-3-(2-methoxy-phenyl)-butyramide] | ≥ 10 µM | 0.3 to 2 µM
4 | CCOc1ccccc1CCC(=O)Nc1sc2c(c1C#N)CCN(C(=O)CCn1cnc(C)c1)C2 [Example 156, N-{3-Cyano-6-[3-(4-methyl-imidazol-1-yl)-propanoyl]-4,5,6,7-tetrahydro-thieno[2,3-c]pyridin-2-yl}-3-(2-ethoxy-phenyl)-propionamide] | ≥ 10 µM | ≤ 0.3 µM
5 | COc1cccc(CCC(=O)Nc2sc3c(c2C#N)CCN(C(=O)Cc2cccnc2)C3)c1 [Example 39, N-[3-Cyano-6-(2-pyridin-3-yl-ethanoyl)-4,5,6,7-tetrahydro-thieno[2,3-c]pyridin-2-yl]-3-(3-methoxy-phenyl)-propionamide] | ≥ 40 µM | ≤ 0.3 µM
6 | CCOc1cccc(C(C)CC(=O)Nc2sc3c(c2C#N)CCN(C(=O)Cc2ccccn2)C3)c1 (racemic) [Example 61, (RS)—N-[3-Cyano-6-(2-pyridin-2-yl-ethanoyl)-4,5,6,7-tetrahydro-thieno[2,3-c]pyridin-2-yl]-3-(3-ethoxy-phenyl)-butyramide] | > 100 µM | 0.3 to 2 µM
7 | COc1cccc(CCC(=O)Nc2sc3c(c2C#N)CCN(C(=O)CCc2ccncc2)C3)c1 [Example 15, N-[3-Cyano-6-(3-pyridin-4-yl-propanoyl)-4,5,6,7-tetrahydro-thieno[2,3-c]pyridin-2-yl]-3-(3-methoxy-phenyl)-propionamide] | > 100 µM | 0.3 to 2 µM
8 | COc1ccc(OC)c(CCC(=O)Nc2sc3c(c2C#N)CCN(C(=O)Cc2cccnc2)C3)c1 [Example 36, N-[3-Cyano-6-(2-pyridin-3-yl-ethanoyl)-4,5,6,7-tetrahydro-thieno[2,3-c]pyridin-2-yl]-3-(2,5-dimethoxy-phenyl)-propionamide] | > 100 µM | 0.3 to 2 µM
9 | COc1cccc(CCC(=O)Nc2sc3c(c2C#N)CCN(C(=O)Cc2ccccn2)C3)c1 [Example 31, N-[3-Cyano-6-(2-pyridin-2-yl-ethanoyl)-4,5,6,7-tetrahydro-thieno[2,3-c]pyridin-2-yl]-3-(3-methoxy-phenyl)-propionamide] | > 100 µM | ≤ 0.3 µM
10 | COc1cccc(CCC(=O)Nc2sc3c(c2C#N)CCN(C(=O)CCn2ccnc2)C3)c1 [Example 20, N-[3-Cyano-6-(3-imidazol-1-yl-propanoyl)-4,5,6,7-tetrahydro-thieno[2,3-c]pyridin-2-yl]-3-(3-methoxy-phenyl)-propionamide] | ≥ 40 µM | 0.3 to 2 µM
11 | COc1cccc(CCC(=O)Nc2sc3c(c2C#N)CCN(C(=O)Cn2ccnc2C)C3)c1 [Example 129, N-{3-Cyano-6-[2-(2-methyl-imidazol-1-yl)-ethanoyl]-4,5,6,7-tetrahydro-thieno[2,3-c]pyridin-2-yl}-3-(3-methoxy-phenyl)-propionamide] | ≥ 40 µM | 0.3 to 2 µM
12 | COc1ccccc1CCC(=O)Nc1sc2c(c1C#N)CCN(C(=O)Cn1ccnc1C)C2 [Example 130, N-{3-Cyano-6-[2-(2-methyl-imidazol-1-yl)-ethanoyl]-4,5,6,7-tetrahydro-thieno[2,3-c]pyridin-2-yl}-3-(2-methoxy-phenyl)-propionamide] | ≥ 40 µM | ≤ 0.3 µM
13 | COc1ccccc1C(C)CC(=O)Nc1sc2c(c1C#N)CCN(C(=O)CCc1nccn1C)C2 (racemic) [Example 113, (RS)—N-{3-Cyano-6-[3-(1-methyl-1H-imidazol-2-yl)-propanoyl]-4,5,6,7-tetrahydro-thieno[2,3-c]pyridin-2-yl}-3-(2-methoxy-phenyl)-butyramide] | ≥ 10 µM | 0.3 to 2 µM
14 | CCOc1ccccc1C(C)CC(=O)Nc1sc2c(c1C#N)CCN(C(=O)Cc1ccccn1)C2 (racemic) [Example 63, (RS)—N-[3-Cyano-6-(2-pyridin-2-yl-ethanoyl)-4,5,6,7-tetrahydro-thieno[2,3-c]pyridin-2-yl]-3-(2-ethoxy-phenyl)-butyramide] | ≥ 10 µM | ≤ 0.3 µM
15 | CCCC(=O)N1CCc2c(sc(NC(=O)CC(C)c3ccccc3OC)c2C#N)C1 (racemic) [Example 89, (RS)—N-(6-Butyryl-3-cyano-4,5,6,7-tetrahydro-thieno[2,3-c]pyridin-2-yl)-3-(2-methoxy-phenyl)-butyramide] | > 100 µM | ≤ 0.3 µM

Now from value to compound, other results behind:

Row | IC50 [1] | Structure (SMILES) | IC50 [2]
16 | ≥ 10 µM | COc1ccc(C)cc1CCC(=O)Nc1sc2c(c1C#N)CCN(C(=O)CCn1cc(C)nc1C)C2 [Example 163, N-{3-Cyano-6-[3-(2,4-dimethyl-imidazol-1-yl)-propanoyl]-4,5,6,7-tetrahydro-thieno[2,3-c]pyridin-2-yl}-3-(2-methoxy-5-methyl-phenyl)-propionamide] | 0.3 to 2 µM
17 | > 100 µM | COc1ccc(C)cc1CCC(=O)Nc1sc2c(c1C#N)CCN(C(=O)Cc1ccccn1)C2 [Example 60, N-[3-Cyano-6-(2-pyridin-2-yl-ethanoyl)-4,5,6,7-tetrahydro-thieno[2,3-c]pyridin-2-yl]-3-(2-methoxy-5-methyl-phenyl)-propionamide] | ≤ 0.3 µM
18 | > 100 µM | CCOc1ccccc1CCC(=O)Nc1sc2c(c1C#N)CCN(C(=O)COC)C2 [Example 19, N-[3-Cyano-6-(2-methoxy-ethanoyl)-4,5,6,7-tetrahydro-thieno[2,3-c]pyridin-2-yl]-3-(2-ethoxy-phenyl)-propionamide] | ≤ 0.3 µM
19 | > 100 µM | COc1ccc(C)cc1CCC(=O)Nc1sc2c(c1C#N)CCN(C(=O)Cc1cccnc1)C2 [Example 37, N-[3-Cyano-6-(2-pyridin-3-yl-ethanoyl)-4,5,6,7-tetrahydro-thieno[2,3-c]pyridin-2-yl]-3-(2-methoxy-5-methyl-phenyl)-propionamide] | ≤ 0.3 µM
20 | ≥ 10 µM | COc1ccc(C)cc1CCC(=O)Nc1sc2c(c1C#N)CCN(C(=O)CCn1ccnc1C)C2 [Example 110, N-{3-Cyano-6-[3-(2-methyl-imidazol-1-yl)-propanoyl]-4,5,6,7-tetrahydro-thieno[2,3-c]pyridin-2-yl}-3-(2-methoxy-5-methyl-phenyl)-propionamide] | 0.3 to 2 µM
21 | > 100 µM | COCCC(=O)N1CCc2c(sc(NC(=O)CCc3cccc(OC)c3)c2C#N)C1 [Example 12, N-[3-Cyano-6-(3-methoxy-propanoyl)-4,5,6,7-tetrahydro-thieno[2,3-]pyridin-2-yl]-3-(3-methoxy-phenyl)-propionamide] | 0.3 to 2 µM
22 | ≥ 40 µM | CCOc1ccccc1CCC(=O)Nc1sc2c(c1C#N)CCN(C(=O)Cn1ccnc1)C2 [Example 85, N-[3-Cyano-6-(2-imidazol-1-yl-ethanoyl)-4,5,6,7-tetrahydro-thieno[2,3-c]pyridin-2-yl]-3-(2-ethoxy-phenyl)-propionamide] | ≤ 0.3 µM
23 | > 100 µM | CCOc1ccccc1CCC(=O)Nc1sc2c(c1C#N)CCN(C(=O)COCCOC)C2 [Example 25, N-{3-Cyano-6-[2-(2-methoxy-ethoxy)-ethanoyl]-4,5,6,7-tetrahydro-thieno[2,3-c]pyridin-2-yl}-3-(2-ethoxy-phenyl)-propionamide] | ≤ 0.3 µM
